From US9427446B2, “Stable injectable composition containing diclofenac and thiocolchicoside” (EPIFARMA S.R.L., priority 2012, dated 2016)

Assay: Suitability of BHT as antioxidant for a solution of diclofenac and thiocolchicoside (solubility/precipitation on storage)
Type: physicochemical
Conditions: ordinary storage conditions

Solubility / precipitation as antioxidant in a solution of diclofenac and thiocolchicoside: poor solubility and precipitation
Compound: Cc1cc(C(C)(C)C)c(O)c(C(C)(C)C)c1 [BHT, 2,6-bis(1,1-dimethylethyl)-4-methylphenol]
